Results published in patent publication US20210395210A1, “INHIBITION OF BACTERIAL CHAPERONIN SYSTEMS” (THE TRUSTEES OF INDIANA UNIVERSITY, priority 2018, published 2021).
Like-named read-outs stand apart in the source and are kept apart here.

How the values were obtained:
E. coli GroEL/ES = biological target: T1, E. coli GroEL/ES (Escherichia coli, UniProt P0A6F5); assay: GroEL/ES-mediated dMDH refolding assay; assay type: biochemical; settings: for inhibition in the GroEL/ES-mediated refolding assays (in words): dMDH and dRho refolding assays
T1 construct: made in house; host or cells: GroEL in E. coli DH5α; GroES in E. coli BL21 (DE3)
Description: Reagent preparation: For these assays, four primary reagent stocks were prepared: 1) GroEUES-dMDH or HSP60/10-dMDH binary complex stock; 2) ATP initiation stock; 3) EDTA quench stock; 4) MDH enzymatic assay stock. Denatured MDH (dMDH) was prepared by 2-fold dilution of MDH (5 mg/ml, soluble pig heart MDH from Roche, product #10127248001) with denaturant buffer (7 M guanidine-HCl, 200 mM Tris, pH 7.4, and 50 mM DTT). MDH was completely denatured by incubating at room temperature for 45 min. The binary complex solutions were prepared by slowly adding the dMDH stock to a stirring stock with GroEL (or HSP60) in folding buffer (50 mM Tris-HCl, pH 7.4, 50 mM KCl, 10 mM MgCl2, and 1 mM DTT), followed by addition of GroES (or HSP10). The binary complex stocks were prepared immediately prior to dispensing into the assay plates and had final protein concentrations of 83.3 nM GroEL (Mr 800 kDa) or HSP60 (Mr 400 kDa), 100 nM GroES or HSP10 (Mr 70 kDa), and 20 nM dMDH in folding buffer. For the ATP initiation stock, ATP solid was diluted into folding buffer to a final concentration of 2.5 mM. Quench solution contained 600 mM EDTA (pH 8.0). The MDH enzymatic assay stock consisted of 20 mM sodium mesoxalate and 2.4 mM NADH in reaction buffer (50 mM Tris-HCl, pH 7.4, 50 mM KCl, and 1 mM DTT).
Assay Protocol: First, 30 μL aliquots of the GroEL/ES-dMDH or HSP60/10-dMDH binary complex stocks were dispensed into clear, 384-well polystyrene plates. […] The chaperonin-mediated refolding cycles were initiated by addition of 20 μL of ATP stock (reagent concentrations during refolding cycle: 50 nM GroEL or HSP60, 60 nM GroES or HSP10, 12 nM dMDH, 1 mM ATP, and compounds of 100 μM to 46 nM, 3-fold dilution series). The refolding reactions were incubated at 37° C. […] Next, the assay was quenched by addition of 10 μL of the EDTA to final concentration of 100 mM. […] A340 nm measurements were recorded at 0.5 minutes (start point) and at successive time points until the amount of NADH consumed reached ˜90% (end point, generally between 20-35 minutes). The differences between the start and end point A340 values were used to calculate the % inhibition of the GroEL/ES or HSP60/10 machinery by the compounds. […] Results presented represent the averages of IC50 values obtained from at least quadriplicate (duplicate of duplicate) replicates.
After generating the compound library, we next employed a series of well-established biochemical assays to evaluate compound inhibitory effects against the GroEUES chaperonin system (See FIG. 6 and FIG. 7). We used E. coli GroEUES as the surrogate chaperonin system for refolding of the reporter enzymes malate dehydrogenase (MDH) and rhodanese (Rho). Briefly, binary complexes are formed between GroEL and denatured MDH or Rho, which are then refolded to their native states upon addition of ATP and the GroES co-chaperonin. Enzymatic activities of refolded native MDH or Rho act as coupled reporters of GroEUES refolding functions since in the presence of chaperonin inhibitors, no functional reporter enzymes are generated.

[1] = tested on: S. aureus Rosenbach (ATCC 25923) biofilm formation; assay: S. aureus biofilm prevention assay (crystal violet); assay type: cell-based; settings: Staphylococcus aureus, read-out: S. aureus Proliferation & Biofilm Assay EC50 Preventing Biofilm Formation
Description: The biofilm prevention assay was carried out with S. aureus Rosenbach (ATCC 25923) using a quantitative crystal violet-based adherence assay on 96-well plates. S. aureus (ATCC 25923) bacteria were streaked onto a Tryptic Soy Broth (TSB) agar plate and grown overnight at 37° C. A fresh aliquot of TSB media was inoculated with a single bacterial colony and the cultures were grown overnight at 37° C. with shaking (250 rpm). The overnight culture was then sub-cultured (1:5 dilution) into a fresh aliquot of TSB media supplemented to a final concentration of 0.5% glucose and grown at 37° C. for 1 h with shaking, then diluted into fresh TSB media supplemented with 0.5% glucose to achieve a final OD600 reading of 0.01. Aliquots of the diluted culture (100 μL) were dispensed to 96 well polystyrene plates along with addition of 1 μL test compounds in DMSO. The inhibitor concentration range during the assay was 100 μM to 46 nM (3-fold dilution series). A second set of baseline control plates were prepared analogously, but without any bacteria added, to correct for possible compound absorbance and/or precipitation. Plates were sealed with “Breathe Easy” oxygen permeable membranes (Diversified Biotech) and left to incubate at 37° C. without shaking (stagnant assay) until the biofilm was formed. After 24 h, the planktonic cultures were removed and the plates were washed gently 2-3 times with 200 μl of water. Next, the plates were air dried and the adherent biofilms were stained with 150 μL of crystal violet solution (2.3% crystal violet in 20% Ethanol, Sigma Aldrich #HT90132) for 15 minutes at R.T. The unbound crystal violet stain was removed, then plates were gently washed again with running water and air dried for 10 min. Quantitative assessment of biofilm formation was obtained by adding 100 μL of developer solution (4:1:5 mixture of MeOH:AcOH:H2O) per well. Well absorbance was then read at 595 nm using a Molecular Devices SpectraMax Plus384 microplate reader. […] Results presented represent the averages of EC50 values obtained from at least triplicate experiments.
Establishing biofilms is another effective mechanism by which S. aureus can evade the effects of many current antibiotics, including vancomycin. […] Briefly, test compounds (1, 2, 5, 8, 11, and vancomycin) were incubated with S. aureus bacteria in media supplemented with 0.5% glucose (to support biofilm formation) for 24 h at 37° C. After 24 h, the supernatant was removed, the wells were gently washed, and the biofilm that had formed on the well surfaces were stained with crystal-violet and quantified by UV-Vis spectroscopy.

[2] = log of IC50 (μM scale), with standard deviation
[3] = read-out: Biochemical Assay IC50 GroEL/ES-dMDH refolding

T1 sequence (P0A6F5 2-548): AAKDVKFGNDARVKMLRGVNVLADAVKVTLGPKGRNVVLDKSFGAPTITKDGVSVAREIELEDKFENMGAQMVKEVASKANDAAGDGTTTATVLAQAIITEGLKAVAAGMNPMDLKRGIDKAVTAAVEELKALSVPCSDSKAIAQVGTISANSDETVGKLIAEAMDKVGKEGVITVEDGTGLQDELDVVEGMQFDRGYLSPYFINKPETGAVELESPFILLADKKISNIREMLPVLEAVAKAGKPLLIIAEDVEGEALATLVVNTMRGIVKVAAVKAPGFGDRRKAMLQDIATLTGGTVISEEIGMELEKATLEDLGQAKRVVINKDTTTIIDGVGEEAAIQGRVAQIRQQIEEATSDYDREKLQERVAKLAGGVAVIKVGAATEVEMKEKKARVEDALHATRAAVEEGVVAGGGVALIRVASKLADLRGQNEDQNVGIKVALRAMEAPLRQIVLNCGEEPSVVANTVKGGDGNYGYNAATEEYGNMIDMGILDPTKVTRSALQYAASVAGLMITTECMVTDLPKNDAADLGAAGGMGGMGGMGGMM

| SMILES | log(IC50) GroEL/ES-dMDH Refolding (E. coli GroEL/ES; [2]) | IC50 (E. coli GroEL/ES; [3]) [µM] | EC50 ([1]; ATCC25923, 24 h) [µM] | inhibition in the GroEL/ES-mediated refolding assays (in words) (E. coli GroEL/ES) | selectivity for E. coli GroEL/ES over human HSP60/10 (in words) (E. coli GroEL/ES; GroEL/ES-dMDH vs HSP60/10-dMDH IC50) | EC50 ([1]; ATCC25923, 24 h, media with 0.5% glucose, crystal violet A595) [µM] | IC50 (E. coli GroEL/ES) [µM] | IC50 (E. coli GroEL/ES; log of IC50 (μM scale), with standard deviation, read-out: log(IC50) GroEL/ES-dMDH Refolding (converted)) [µM] |
| --- | --- | --- | --- | --- | --- | --- | --- | --- |
| O=C(Nc1ccc(Sc2nc3ccccc3s2)c(Cl)c1)c1cc(Br)cc(Br)c1O [Compound 1, N-(4-(Benzo[d]thiazol-2-ylthio)-3-chlorophenyl)-3,5-dibromo-2-hydroxybenzamide] | 0.23 ± 0.28 | 1.7 | 0.72 |  |  |  |  |  |
| O=C(Nc1ccc(Sc2nc3ccccc3s2)c(Cl)c1)c1cccc(Br)c1O [Compound 2, N-(4-(Benzo[d]thiazol-2-ylthio)-3-chlorophenyl)-3-bromo-2-hydroxybenzamide] | 0.98 ± 0.23 | 9.5 | 1 | moderate to potent inhibitors |  |  |  |  |
| O=C(Nc1ccc(Sc2nc3ccccc3s2)cc1)c1cc(Br)cc(Br)c1O [Compound 5, N-(4-(Benzo[d]thiazol-2-ylthio)phenyl)-3,5-dibromo-2-hydroxybenzamide] | 0.43 ± 0.19 | 2.7 | 0.54 |  |  |  |  |  |
| O=C(Nc1ccc(Sc2nc3ccccc3s2)cc1)c1ccccc1O [Compound 8, N-(4-(Benzo[d]thiazol-2-ylthio)phenyl)-2-hydroxybenzamide] | 1.60 ± 0.26 | 40 |  |  | selectively inhibit E. coli GroEUES over human HSP60/10 | 0.91 |  |  |
| O=C(Nc1cccc(Cl)c1)c1cc(Br)ccc1O [Compound 11, 5-Bromo-N-(3-chlorophenyl)-2-hydroxybenzamide] | >2 |  | 0.44 |  |  |  | > 100 |  |
| COc1c(Br)cccc1C(=O)Nc1ccccc1 [Compound 42, 3-Bromo-2-methoxy-N-phenylbenzamide] | >2 |  |  |  |  |  | > 100 |  |
| COc1ccc(Br)cc1C(=O)Nc1ccccc1 [Compound 43, 5-Bromo-2-methoxy-N-phenylbenzamide] | >2 |  |  |  |  |  | > 100 |  |
| COc1ccccc1C(=O)Nc1ccccc1 [Compound 44, 2-Methoxy-N-phenylbenzamide] | >2 |  |  |  |  |  | > 100 |  |
| O=C(Nc1ccc(Oc2ccc(Cl)cc2)c(Cl)c1)c1cc(I)cc(I)c1O [Rafoxanide, rafoxanide, reference compound] |  | 4.3 |  | potent GroEUES inhibitors |  |  |  | 4.37 |
| CN[C@H](CC(C)C)C(=O)N[C@H]1C(=O)N[C@@H](CC(N)=O)C(=O)N[C@H]2C(=O)N[C@H]3C(=O)N[C@H](C(=O)N[C@H](C(=O)O)c4cc(O)cc(O)c4-c4cc3ccc4O)[C@H](O)c3ccc(c(Cl)c3)Oc3cc2cc(c3O[C@@H]2O[C@H](CO)[C@@H](O)[C@H](O)[C@H]2O[C@H]2C[C@](C)(N)[C@H](O)[C@H](C)O2)Oc2ccc(cc2Cl)[C@H]1O [Vancomycin, vancomycin, reference compound] | >2 |  | 0.54 |  |  |  | > 100 |  |
